# Experimental data as given in patent US4950647A, “T cell immunopotentiator” (Nucleic Acid Research Institute, priority 1988, dated 1990).
# Read-outs that look alike come from different tables or passages of the source.
# Experiments:
# [1] = tested on: human lymphocytes (peripheral blood mononuclear cells); test: Concanavalin A (Con A) induced lymphocyte proliferation; type: cell-based; set-up: 3H-thymidine incorporation in Con A-stimulated cultures: unit not given here
# Procedure: (§1) Peripheral blood mononuclear cells were isolated from heparinized peripheral blood of normal healthy donors as described in Sharma, B. and S. Gupta, "Antigen-specific primary cytotoxic T lymphocyte response in acquired immune deficiency syndrome (AIDS) and AIDS related complex", Clin. Exp. Immunol., 62:296, 1985. Briefly, blood was diluted 1:1 with Hanks balanced salt solution (HBSS). Peripheral blood mononuclear cells were separated on a Ficoll-Hypaque gradient. The peripheral blood mononuclear cells recovered from the interface were washed three times with HBSS and resuspended in RPMI-1640 containing 100 U/ml penicillin, 100 μg/ml streptomycin 2mM L-glutamine (GIBCO, Grand Island, N.Y.), and 10% heat-inactivated pooled A serum (Irvine Scientific, Irvine, Calif.), hereafter referred as complete medium (CM).
# The ability of the compound 6-amino-(2-deoxy-α-D-erythropentofuranosyl)-imidazo[4,5,-C]pyridin-4-one to modulate lymphocyte response to plant mitogens was determined by the modified procedure of Sharma, B., O. Kohashi, M. R. Mickey, and P. T. Terasaki, "Effect of water soluble adjuvants on in vitro lymphocyte immunization", Cancer Res. 35:666, 1975. Peripheral blood mononuclear cells were cultured for 72-96 hr with phytohemagglutinin (Difco, Detroit, Mich.), Concanavalin A (Calbiochem, Calif.) or Pokeweed mitogen (GIBCO, Grand Island, N.Y.) in the presence and absence of 6-amino-(2-deoxy-α-D-erythro-pentofuranosyl)-imidazo[4,5,-C]pyridin- 4-one. The culture were set up in quadruplicate and pulsed with [^3 H]-thymidine for 16 hr and the [^3 H] thymidine incorporation was determined.
# Peripheral blood mononuclear cells were cultured with different concentrations of Concanavalin A in the presence and absence of 6-amino-(2-deoxy-α-D-erythro-pentofuranosyl)-imidazo[4,5,-C]pyridin- 4-one. Lymphocyte proliferation was determined by ^3 H-thymidine incorporation.
# [2] = tested on: lymphocytes (peripheral blood mononuclear cells); test: Pokeweed mitogen (PWM) induced lymphocyte proliferation; type: cell-based, human; set-up: 3H-thymidine incorporation: unit not given here
# Procedure: as §1, with “(CM). […] T. Terasaki, "Effect of water soluble adjuvants on in vitro lymphocyte immunization", Cancer Res. 35:666, 1975. […] The culture were set up in quadruplicate and pulsed with [^3 H]-thymidine for 16 hr and the [^3 H] thymidine incorporation was determined.” for “(CM).”
# [3] = tested on: T lymphocytes (peripheral blood mononuclear cells); test: Cyclosporin A induced suppression of lymphocyte response to phytohemagglutinin / T cell mitogens, and its restoration; type: cell-based, human
# Procedure: as §1
# Cultures were pulsed for 16 hr and [^3 H]-thymidine incorporation was measured.
# Peripheral blood mononuclear cells from normal donors were incubated with T cell mitogens in the presence and absence of this compound and then [^3 H-thymidine incorporation was measured.
# Peripheral blood mononuclear cells were cultured with phytohemagglutinin in the presence of CsA (10 and 50 ng/0.2 ml) and 6-amino-(2-deoxy-α-D-erythro-pentofuranosyl)-imidazo[4,5,-C]pyridin- 4-one. Lymphocytes proliferation was determined by ^3 H-thymidine incorporation.
# [4] = Revankar et al. 1984; cited from earlier work
# [5] = donor 1, Con A 0.25 mg/0.2 ml, compound (0.05)
# [6] = donor 1, Con A 1.0 mg/0.2 ml, compound (0.006)
# [7] = donor 1, Con A 4.0 mg/0.2 ml, compound (0.038)
# [8] = donor 2, Con A 0.13 mg/0.2 ml, compound (0.2)
# [9] = donor 2, Con A 0.13 mg/0.2 ml, compound (0.4)
# [10] = donor 2, Con A 0.25 mg/0.2 ml, compound (0.2)
# [11] = donor 2, Con A 0.25 mg/0.2 ml, compound (0.4)
# [12] = donor 2, Con A 2.0 mg/0.2 ml, compound (0.025)
# [13] = donor 3, Con A 0.13 mg/0.2 ml, compound (0.0125)
# [14] = donor 3, Con A 0.13 mg/0.2 ml, compound (0.4)
# [15] = donor 3, Con A 0.25 mg/0.2 ml, compound (0.05)
# [16] = donor 3, Con A 0.25 mg/0.2 ml, compound (0.4)
# [17] = donor 3, Con A 2.0 mg/0.2 ml, compound (0.05)
# [18] = donor 3, Con A 2.0 mg/0.2 ml, compound (O.4)
# [19] = donor 4, Con A 0.05 mg/0.2 ml, compound (0.025)
# [20] = donor 4, Con A 0.13 mg/0.2 ml, compound (0.05)
# [21] = donor 4, Con A 0.25 mg/0.2 ml, compound (0.05)
# [22] = donor 5, Con A 0.5 mg/0.2 ml, compound (0.05)
# [23] = donor 5, Con A 2.0 mg/0.2 ml, compound (0.025)
structure (smiles),measurement,setting,value
"Nc1cc2c(ncn2[C@@H]2C[C@H](O)[C@@H](CO)O2)c(O)n1 [Test Compound, 6-amino-1-(2-deoxy-α-D-erythro-pentofuranosyl)imidazo[4,5-C]-pyridin-4-one]",increase in lymphocyte response to Concanavalin A,[1],marked increase
same,mean increase of Con A response,[1]; Table IV,109%
same,suppressive effect on Con A response,[1]; Table IV,slight suppressive effect in only one case
same,3H-thymidine incorporation in Con A-stimulated cultures,[1]; [5],49279 ± 2732
same,% Potentiation,[1]; [5],32%
same,3H-thymidine incorporation in Con A-stimulated cultures,[1]; [6],71105 ± 4015
same,% Potentiation,[1]; [6],34%
same,3H-thymidine incorporation in Con A-stimulated cultures,[1]; [7],99322 ± 8655
same,% Potentiation,[1]; [7],43%
same,3H-thymidine incorporation in Con A-stimulated cultures,[1]; [8],18607 ± 2157
same,% Potentiation,[1]; [8],318%
same,3H-thymidine incorporation in Con A-stimulated cultures,[1]; [9],31068 ± 2678
same,% Potentiation,[1]; [9],599%
same,3H-thymidine incorporation in Con A-stimulated cultures,[1]; [10],44958 ± 2248
same,% Potentiation,[1]; [10],203%
same,3H-thymidine incorporation in Con A-stimulated cultures,[1]; [11],48354 ± 3336
same,% Potentiation,[1]; [11],226%
same,3H-thymidine incorporation in Con A-stimulated cultures,[1]; [12],162317 ± 10872
same,% Potentiation,[1]; [12],29%
same,3H-thymidine incorporation in Con A-stimulated cultures,[1]; [13],29693 ± 4998
same,% Potentiation,[1]; [13],50%
same,3H-thymidine incorporation in Con A-stimulated cultures,[1]; [14],39902 ± 2918
same,% Potentiation,[1]; [14],102%
same,3H-thymidine incorporation in Con A-stimulated cultures,[1]; [15],57780 ± 9762
same,% Potentiation,[1]; [15],36%
same,3H-thymidine incorporation in Con A-stimulated cultures,[1]; [16],51010 ± 3861
same,% Potentiation,[1]; [16],20%
same,3H-thymidine incorporation in Con A-stimulated cultures,[1]; [17],122692 ± 3643
same,% Potentiation,[1]; [17],12%
same,3H-thymidine incorporation in Con A-stimulated cultures,[1]; [18],98613 ± 4737
same,% Potentiation,[1]; [18],-11%
same,3H-thymidine incorporation in Con A-stimulated cultures,[1]; [19],43957 ± 6053
same,% Potentiation,[1]; [19],54%
same,3H-thymidine incorporation in Con A-stimulated cultures,[1]; [20],44234 ± 5027
same,% Potentiation,[1]; [20],110%
same,3H-thymidine incorporation in Con A-stimulated cultures,[1]; [21],39059 ± 5098
same,% Potentiation,[1]; [21],49%
same,3H-thymidine incorporation in Con A-stimulated cultures,[1]; [22],71303 ± 3633
same,% Potentiation,[1]; [22],33%
same,3H-thymidine incorporation in Con A-stimulated cultures,[1]; [23],75046 ± 1495
same,% Potentiation,[1]; [23],16%
same,maximum increase of Pokeweed mitogen induced proliferation,[2],18%
same,activation at 6 µM,"[2]; Homo sapiens, Lymphocyte, donor 1, control 53384, 0.006 mM, read-out: % Increase (+)",18%
same,activation at 25 µM,"[2]; Homo sapiens, Lymphocyte, donor 1, control 53384, 0.025 mM, read-out: % Increase (+)",8%
same,activation at 6 µM,"[2]; Homo sapiens, Lymphocyte, donor 1, second control 58731, 0.006 mM, read-out: % Increase (+)",4%
same,activation at 6 µM,"[2]; Homo sapiens, Lymphocyte, donor 4, 0.006 mM, read-out: % Increase (+)",4%
same,inhibition at 50 µM,"[2]; Homo sapiens, PBMC, donor 1, control 53384, 0.05 mM, read-out: % Decrease (-)",14%
same,inhibition at 25 µM,"[2]; Homo sapiens, PBMC, donor 1, second control 58731, 0.025 mM, read-out: % Decrease (-)",1%
same,inhibition at 50 µM,"[2]; Homo sapiens, PBMC, donor 1, second control 58731, 0.05 mM, read-out: % Decrease (-)",7%
same,inhibition at 25 µM,"[2]; Homo sapiens, PBMC, donor 2, 0.025 mM, read-out: % Decrease (-)",19%
same,inhibition at 50 µM,"[2]; Homo sapiens, PBMC, donor 2, 0.05 mM, read-out: % Decrease (-)",19%
same,inhibition at 125 µM,"[2]; Homo sapiens, PBMC, donor 2, 0.125 mM, read-out: % Decrease (-)",16%
same,inhibition at 6 µM,"[2]; Homo sapiens, PBMC, donor 3, 0.006 mM, read-out: % Decrease (-)",4%
same,inhibition at 25 µM,"[2]; Homo sapiens, PBMC, donor 3, 0.025 mM, read-out: % Decrease (-)",22%
same,inhibition at 200 µM,"[2]; Homo sapiens, PBMC, donor 3, 0.2 mM, read-out: % Decrease (-)",27%
same,inhibition at 25 µM,"[2]; Homo sapiens, PBMC, donor 4, 0.025 mM, read-out: % Decrease (-)",11%
same,inhibition at 50 µM,"[2]; Homo sapiens, PBMC, donor 4, 0.05 mM, read-out: % Decrease (-)",18%
same,3H-thymidine incorporation,"[2]; donor 1, control 53384, 0.006 mM",62772 ± 2781
same,3H-thymidine incorporation,"[2]; donor 1, control 53384, 0.025 mM",56449 ± 2090
same,3H-thymidine incorporation,"[2]; donor 1, control 53384, 0.05 mM",45844 ± 1152
same,3H-thymidine incorporation,"[2]; donor 1, second control 58731, 0.006 mM",61100 ± 4701
same,3H-thymidine incorporation,"[2]; donor 1, second control 58731, 0.025 mM",57852 ± 3166
same,3H-thymidine incorporation,"[2]; donor 1, second control 58731, 0.05 mM",54840 ± 942
same,3H-thymidine incorporation,"[2]; donor 2, 0.025 mM",67565 ± 5857
same,3H-thymidine incorporation,"[2]; donor 2, 0.05 mM",67429 ± 3657
same,3H-thymidine incorporation,"[2]; donor 2, 0.125 mM",70197 ± 5940
same,3H-thymidine incorporation,"[2]; donor 3, 0.006 mM",40425 ± 1158
same,3H-thymidine incorporation,"[2]; donor 3, 0.025 mM",32818 ± 4806
same,3H-thymidine incorporation,"[2]; donor 3, 0.2 mM",30453 ± 2974
same,3H-thymidine incorporation,"[2]; donor 4, 0.006 mM",39090 ± 4853
same,3H-thymidine incorporation,"[2]; donor 4, 0.025 mM",33122 ± 4539
same,3H-thymidine incorporation,"[2]; donor 4, 0.05 mM",30500 ± 2132
same,suppressive effect on Pokeweed mitogen induced proliferation,[2]; especially at relatively higher concentrations,generally a suppressive effect
same,immunopotentiating effect on Pokeweed mitogen induced proliferation,"[2]; listed as 6-Amino-(2-deoxy-α-D-erythro-pentofuranosyl)-imidazo[4,5,-C]pyridin-4-one",did not have any significant immunopotentiating effect
same,T cell proliferative response after addition of compound,"[3]; FIG. 3, PHA + Cyclosporin A + compound","43,000 CPM"
same,reversal of cyclosporin mediated suppression (partial),"[3]; magnitude of cyclosporin mediated suppression higher, T cell mitogens",over 50%
same,restoration of lymphocyte proliferation,"[3]; suppression about half of the total response, mitogen not stated",completely restored the lymphocyte proliferation
same,reconstitution of immune response,"[3]; suppression low, lower concentration of cyclosporin, T cell mitogens",essentially complete
same,antitumor activity,[4],devoid of any useful antitumor activity
